Test results as given in patent US9199971B2, “Arylethynyl pyrimidines” (Hoffmann-La Roche Inc., priority 2012, dated 2015).
≈ marks a conversion by molar mass, not a printed value.

Experiments:
[1] = Spontaneous Glutathione (GSH) Addition Assay; set-up: key: Samples for which the mass of a covalent adduct was clearly detected (M+307) are indicated as FLAG (positive); Compounds for which no adduct was detected are designated NO FLAG (negative); details: 10 μM test substance, 5 mM GSH, pH 7.4 phosphate buffer, 24 hours, room temperature; adduct by MS
Procedure: 10 μM of test substance dissolved in pH 7.4 phosphate buffer was incubated with 5 mM GSH (glutathione) for 24 hours at room temperature. The samples were then analyzed using a mass spectrometer to determine whether adducts between glutathione and the drug had been formed. Samples for which the mass of a covalent adduct was clearly detected (M+307) are indicated as FLAG (positive). Compounds for which no adduct was detected are designated NO FLAG (negative).

[2] = Lyophilisation Solubility Assay (LYSA); format: physicochemical; details: aqueous buffer, thermodynamic from solid, 0.05 M phosphate buffer pH 6.5
Procedure: The procedure of this automatic high throughput assay can be separated into two steps. First, DMSO stock solutions of test compounds are diluted in order to prepare four point calibration curves. The peak area at an optimal wavelength for each test compound is determined automatically by Ultra Fast Liquid Chromatography. The extraction of peak areas and retention times from the raw data is performed automatically. Using four concentrations and the related peak areas, slope and intercept of the calibration line is calculated. The correlation coefficient of the obtained regression line should be greater than 0.99. In the second phase, the sample solutions are prepared in duplicate from the DMSO stock solutions. The DMSO was removed using an evaporator. After evaporation of the DMSO, the solid drugs were solved in 0.05 M phosphate buffer (pH 6.5), stirred for one hour and afterwards shaken for two hours. After standing overnight (about 20 hours), the solutions are filtered using a microtiter filter plate. The filtrate and its 1/10 dilutions are then analyzed automatically by High Performance Liquid Chromatography (HPLC). The peak areas and retention times of the samples were extracted at the same wavelength used for the calibration.
The solubility is calculated using the following equation: S=(A−b)/a(×10 for the sample diluted 1/10)
Where S is the solubility in μg/mL; A is the peak area of the sample; a is the slope and b is the intercept of the calibration curve.

human mGlu5a receptor = biological target: T1, human mGlu5a receptor (Homo sapiens, UniProt P41594); assay: Intracellular Ca2+ mobilization assay (mGlu5 PAM); format: cell-based; details: HEK-293 cells expressing human mGlu5a; L-glutamate at EC20
T1 construct: expressed in transfected cells; host or cells: HEK-293 (monoclonal, stably transfected)
T1 sequence (P41594 21-1180 isoform P41594-2 limits assumed): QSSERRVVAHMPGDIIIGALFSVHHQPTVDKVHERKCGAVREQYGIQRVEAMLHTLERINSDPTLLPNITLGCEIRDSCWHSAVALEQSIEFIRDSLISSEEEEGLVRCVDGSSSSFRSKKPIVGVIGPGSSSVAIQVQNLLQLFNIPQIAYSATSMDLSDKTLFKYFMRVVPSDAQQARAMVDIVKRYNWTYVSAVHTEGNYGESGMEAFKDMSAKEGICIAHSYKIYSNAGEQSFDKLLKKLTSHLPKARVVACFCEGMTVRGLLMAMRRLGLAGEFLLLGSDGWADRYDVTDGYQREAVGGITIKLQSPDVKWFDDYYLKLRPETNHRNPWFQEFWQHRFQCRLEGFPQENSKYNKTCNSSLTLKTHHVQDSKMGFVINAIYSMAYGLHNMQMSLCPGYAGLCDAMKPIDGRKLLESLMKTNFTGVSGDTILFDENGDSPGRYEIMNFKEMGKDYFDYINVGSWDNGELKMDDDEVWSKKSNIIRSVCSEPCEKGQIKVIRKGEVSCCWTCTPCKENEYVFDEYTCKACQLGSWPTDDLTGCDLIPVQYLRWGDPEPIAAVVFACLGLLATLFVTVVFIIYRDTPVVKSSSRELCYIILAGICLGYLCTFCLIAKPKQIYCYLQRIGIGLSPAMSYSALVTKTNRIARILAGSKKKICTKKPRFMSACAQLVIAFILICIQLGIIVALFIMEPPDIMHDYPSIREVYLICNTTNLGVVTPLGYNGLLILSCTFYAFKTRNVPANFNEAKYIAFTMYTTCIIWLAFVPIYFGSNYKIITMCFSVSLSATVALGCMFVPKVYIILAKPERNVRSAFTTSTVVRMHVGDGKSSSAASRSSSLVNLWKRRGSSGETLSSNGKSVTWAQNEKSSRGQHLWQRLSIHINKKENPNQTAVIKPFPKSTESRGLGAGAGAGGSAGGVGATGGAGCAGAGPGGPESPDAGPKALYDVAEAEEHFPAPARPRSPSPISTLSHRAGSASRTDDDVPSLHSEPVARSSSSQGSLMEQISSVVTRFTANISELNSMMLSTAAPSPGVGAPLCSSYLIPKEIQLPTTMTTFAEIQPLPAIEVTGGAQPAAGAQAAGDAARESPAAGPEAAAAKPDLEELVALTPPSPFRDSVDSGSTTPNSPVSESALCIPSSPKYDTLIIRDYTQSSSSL
Procedure: A monoclonal HEK-293 cell line stably transfected with a cDNA encoding for the human mGlu5a receptor was generated; for the work with mGlu5 Positive Allosteric Modulators (PAMs), a cell line with low receptor expression levels and low constitutive receptor activity was selected to allow the differentiation of agonistic versus PAM activity. Cells were cultured according to standard protocols (Freshney, 2000) in Dulbecco's Modified Eagle Medium with high glucose supplemented with 1 mM glutamine, 10% (vol/vol) heat-inactivated bovine calf serum, Penicillin/Streptomycin, 50 μg/ml hygromycin and 15 μg/ml blasticidin (all cell culture reagents and antibiotics from Invitrogen, Basel, Switzerland).
About 24 hrs before an experiment, 5×10^4 cells/well were seeded in poly-D-lysine coated, black/clear-bottomed 96-well plates. The cells were loaded with 2.5 μM Fluo-4AM in loading buffer (1×HBSS, 20 mM HEPES) for 1 hr at 37° C. and washed five times with loading buffer. The cells were transferred into a Functional Drug Screening System 7000 (Hamamatsu, Paris, France), and 11 half logarithmic serial dilutions of test compound at 37° C. were added and the cells were incubated for 10-30 min. with on-line recording of fluorescence. Following this pre-incubation step, the agonist L-glutamate was added to the cells at a concentration corresponding to EC20 (typically around 80 μM) with on-line recording of fluorescence; in order to account for day-to-day variations in the responsiveness of cells, the EC20 of glutamate was determined immediately ahead of each experiment by recording of a full dose-response curve of glutamate.
Responses were measured as peak increase in fluorescence minus basal (i.e. fluorescence without addition of L-glutamate), normalized to the maximal stimulatory effect obtained with saturating concentrations of L-glutamate. Graphs were plotted with the % maximal stimulatory using XLfit, a curve fitting program that iteratively plots the data using Levenburg Marquardt algorithm. The single site competition analysis equation used was y=A+((B−A)/(1+((x/C)D))), where y is the % maximal stimulatory effect, A is the minimum y, B is the maximum y, C is the EC50, x is the log 10 of the concentration of the competing compound and D is the slope of the curve (the Hill Coefficient). From these curves the EC50 (concentration at which half maximal stimulation was achieved), the Hill coefficient as well as the maximal response in % of the maximal stimulatory effect obtained with saturating concentrations of L-glutamate were calculated.
A depression of the signal observed after addition of the EC20 concentration of L-glutamate was indicative of an inhibitory activity of the test compound.

[3] = Solubility by 24 h equilibration in phosphate buffer, manual conventional HPLC (reference compound 106); format: physicochemical; details: aqueous buffer, thermodynamic from solid, equilibrated 24 h in 0.05 M phosphate buffer pH 6.5
Procedure: In the case of reference compound 106, the compound was equilibrated for 24 h in 0.05 M phosphate buffer (pH 6.5) using a procedure identical to that performed with the LYSA assay. The amount of solute present was then directly determined using manual conventional HPLC analytics.

GSH assay [1] | solubility [2] [µg/mL] | EC50 (human mGlu5a receptor) [nM] | Structure (SMILES) | solubility at 24 h [3] [µg/mL]
FLAG | < 1 | 11.9 | CN1C(=O)N(c2ccc(C#Cc3cccc(F)c3)nn2)[C@@H]2CCC[C@@H]21 (racemic) [Ref. 1 Ex. 174, reference compound] | 
NO FLAG | 43 (≈ 113 µM) | 26.8 | COCCN1C(=O)N(c2ncc(C#Cc3ccc(F)cc3)cn2)[C@@H]2CCC[C@@H]21 [Example 7] | 
NO FLAG | 75 (≈ 188 µM) | 15.7 | COCCN1C(=O)N(c2ncc(C#Cc3cc(F)ccc3F)cn2)[C@@H]2CCC[C@@H]21 [Example 8] | 
NO FLAG | 16 (≈ 43.4 µM) | 10 | CCN1C(=O)N(c2ncc(C#Cc3cc(F)ccc3F)cn2)[C@@H]2CCC[C@@H]21 [Example 4] | 
NO FLAG | 153 (≈ 406 µM) | 30.9 | COCCCN1C(=O)N(c2ncc(C#Cc3ccccc3)cn2)[C@@H]2CCC[C@@H]21 [Example 9, (−)-(3aR,6aS)-1-(3-Methoxy-propyl)-3-(5-phenylethynyl-pyrimidin-2-yl)-hexahydro-cyclopentaimidazol-2-one] | 
NO FLAG | 115 (≈ 292 µM) | 31.6 | COCCCN1C(=O)N(c2ncc(C#Cc3cccc(F)c3)cn2)[C@@H]2CCC[C@@H]21 [Example 10] | 
NO FLAG | 4 (≈ 11.4 µM) | 11.5 | CCN1C(=O)N(c2ncc(C#Cc3ccc(F)cc3)cn2)[C@@H]2CCC[C@@H]21 [Example 3] | 
NO FLAG | 114 (≈ 300 µM) | 24.5 | COCCN1C(=O)N(c2ncc(C#Cc3cccc(F)c3)cn2)[C@@H]2CCC[C@@H]21 [Example 6] | 
FLAG | 2 (≈ 6.28 µM) | 8.1 | CN1C(=O)N(c2ccc(C#Cc3ccccc3)nn2)[C@@H]2CCC[C@@H]21 [Ref. 1 Ex. 170, reference compound] | 
NO FLAG | 7 (≈ 20 µM) | 10.6 | CCN1C(=O)N(c2ncc(C#Cc3cccc(F)c3)cn2)[C@@H]2CCC[C@@H]21 [Example 2] | 
NO FLAG | 56 (≈ 142 µM) | 35 | COCCCN1C(=O)N(c2ncc(C#Cc3ccc(F)cc3)cn2)[C@@H]2CCC[C@@H]21 [Example 11] | 
NO FLAG | 8 (≈ 24.1 µM) | 9.1 | CCN1C(=O)N(c2ncc(C#Cc3ccccc3)cn2)[C@@H]2CCC[C@@H]21 [Example 1, (−)-(3aR,6aS)-1-Ethyl-3-(5-phenylethynyl-pyrimidin-2-yl)-hexahydro-cyclopentaimidazol-2-one] | 
NO FLAG | 171 (≈ 472 µM) | 12.5 | COCCN1C(=O)N(c2ncc(C#Cc3ccccc3)cn2)[C@@H]2CCC[C@@H]21 [Example 5, (−)-(3aR,6aS)-1-(2-Methoxy-ethyl)-3-(5-phenylethynyl-pyrimidin-2-yl)-hexahydro-cyclopentaimidazol-2-one] | 

Structure (SMILES) | GSH assay [1] | solubility [2] [µg/mL] | EC50 (human mGlu5a receptor) [nM] | solubility at 24 h [3] [µg/mL]
CN1C(=O)N(c2ccc(C#Cc3ccccc3)cn2)[C@@H]2CCC[C@@H]21 [Ref. 1 Ex. 106, reference compound] |  |  | 8 | 0.011 (≈ 0.0347 µM)
